Values after ≈ are worked out from the molar mass of the structure shown.
Legend:
Type in all cases: functional
Conditions in all cases: 672 h
[1] = system: Mycobacterium tuberculosis; experiment: Antimycobacterial activity against MDR Mycobacterium tuberculosis grown in MGIT liquid medium assessed as growth inhibition measured after 4 weeks by BACTEC method
[2] = system: Mycobacterium tuberculosis; experiment: Antimycobacterial activity against Mycobacterium tuberculosis H37Rv grown in MGIT liquid medium assessed as growth inhibition measured after 4 weeks by BACTEC method
[3] = system: Mycobacterium tuberculosis; experiment: Antimycobacterial activity against Mycobacterium tuberculosis H37Rv grown on Lowenstein-Jensen solid medium assessed as growth inhibition incubated with compound dissolved in DMSO measured after 4 weeks
[4] = system: Mycobacterium tuberculosis; experiment: Antimycobacterial activity against Mycobacterium tuberculosis H37Rv grown on Lowenstein-Jensen solid medium assessed as growth inhibition incubated with compound dissolved in water measured after 4 weeks
[5] = system: Mycobacterium tuberculosis; experiment: Antimycobacterial activity against Mycobacterium tuberculosis H37Rv grown on Lowenstein-Jensen solid medium assessed as growth inhibition incubated with compound dissolved in ethanol/methanol measured after 4 weeks
[6] = system: Mycobacterium tuberculosis; experiment: Antimycobacterial activity against Mycobacterium tuberculosis H37Rv grown on Lowenstein-Jensen solid medium assessed as growth inhibition measured after 4 weeks

SMILES | MIC [1] | MIC [2] | MIC [3] | MIC [4] | MIC [5] | MIC [6]
CCCCCCCCCCCCCCCC1=C(O)C(=O)C=C(O)C1=O | 105 µg/mL (≈ 300 µM) | 107 µg/mL (≈ 305 µM) | – | – | – | –
COc1ccc(-c2coc3cc(O)cc(O)c3c2=O)cc1C=O | – | – | 37 µg/mL (≈ 118 µM) | 36.3 µg/mL (≈ 116 µM) | – | –
C[C@]12CC(=O)CC(CO)(CO)C1CC[C@@]13CC4[C@@H](CC12)[C@@]4(C)C3 (stereo partly drawn) | – | – | 42.9 µg/mL (≈ 135 µM) | 23.3 µg/mL (≈ 73.2 µM) | 42.3 µg/mL (≈ 133 µM) | –
COc1cc(-c2cc(=O)c3c(O)cc(O)cc3o2)c(OC)c(OC)c1OC | – | – | 15 µg/mL (≈ 40.1 µM) | 48 µg/mL (≈ 128 µM) | 7.4 µg/mL (≈ 19.8 µM) | –
CCCCCCCCCCCC1=C(O)C(=O)C=C(O)C1=O [EMBELIN] | 50 µg/mL (≈ 170 µM) | 15 µg/mL (≈ 51 µM) | 35.3 µg/mL (≈ 120 µM) | 49 µg/mL (≈ 166 µM) | 14.7 µg/mL (≈ 49.9 µM) | –
CC(=O)c1c(C)cc2cccc(O)c2c1O [NEPODIN] | – | – | 40.3 µg/mL (≈ 186 µM) | 84.7 µg/mL (≈ 392 µM) | – | –
CN[C@@H]1[C@H](O[C@H]2[C@H](O[C@H]3[C@H](O)[C@@H](O)[C@H](N=C(N)N)[C@@H](O)[C@@H]3N=C(N)N)O[C@@H](C)[C@]2(O)C=O)O[C@@H](CO)[C@H](O)[C@H]1O [STREPTOMYCIN] | 2.5 µg/mL (≈ 4.3 µM) | 3.3 µg/mL (≈ 5.67 µM) | – | – | – | 4.95 µg/mL (≈ 8.51 µM)
CCCCCCCCCCCC1=C(O)C(=O)C=C(OC)C1=O [5-O-METHYLEMBELIN] | 32.9 µg/mL (≈ 107 µM) | 15 µg/mL (≈ 48.6 µM) | – | – | – | –
COc1cc(O)c(C/C=C/c2ccccc2)c(OC)c1 | – | – | 58.4 µg/mL (≈ 216 µM) | 37.9 µg/mL (≈ 140 µM) | – | –
CCCCCCCCCCCCCC1=C(O)C(=O)C=C(O)C1=O [Rapanone] | 65 µg/mL (≈ 202 µM) | 35 µg/mL (≈ 109 µM) | – | – | – | –
Cc1cc(O)c2c(c1)C(=O)c1cc(O)cc(O)c1C2=O [EMODIN] | – | – | 51.7 µg/mL (≈ 191 µM) | 50.3 µg/mL (≈ 186 µM) | – | –
C[C@@H]1CCC2(CO)C(C(=O)O)=CCCC2[C@@]1(C)CCc1ccoc1 (stereo partly drawn) | – | – | 37.4 µg/mL (≈ 113 µM) | 36.7 µg/mL (≈ 110 µM) | 31 µg/mL (≈ 93.2 µM) | –
COc1ccc(C2Oc3cc(O)c(OC)c(O)c3C(=O)C2OC)cc1 (stereo not drawn) | – | – | 53 µg/mL (≈ 153 µM) | 59.3 µg/mL (≈ 171 µM) | – | –
CCCC/C=C/CCCCCCCCCCCCCc1c(O)c(OC(C)=O)c(C)c(OC(C)=O)c1OC(C)=O | 40 µg/mL (≈ 73.2 µM) | 10 µg/mL (≈ 18.3 µM) | – | – | – | –
CCCCCCCCCCCCCC1=C(O)C(=O)C=C(OC)C1=O [Sorgoleone-364] | 70 µg/mL (≈ 208 µM) | 60 µg/mL (≈ 178 µM) | – | – | – | –
CCCCCCCCCC1=C(O)C(=O)C=C(O)C1=O | 60 µg/mL (≈ 225 µM) | 7.5 µg/mL (≈ 28.2 µM) | – | – | – | –
CC1=CC(=O)c2c(O)cccc2C1=O [PLUMBAGIN] | – | – | 42.3 µg/mL (≈ 225 µM) | 40.3 µg/mL (≈ 214 µM) | – | –
CCCCCCCCCCCC1=C(C(C)=O)C(=O)C=C(OC(C)=O)C1=O | 50 µg/mL (≈ 138 µM) | 42.5 µg/mL (≈ 117 µM) | – | – | – | –
CO[C@H]1/C=C/O[C@@]2(C)Oc3c(C)c(O)c4c(O)c(c(/C=N/N5CCN(C)CC5)c(O)c4c3C2=O)NC(=O)/C(C)=C\C=C\[C@H](C)[C@H](O)[C@@H](C)[C@@H](O)[C@@H](C)[C@H](OC(C)=O)[C@@H]1C [RIFAMPIN] | 30 µg/mL (≈ 36.5 µM) | 7.5 µg/mL (≈ 9.11 µM) | – | – | – | 45.7 µg/mL (≈ 55.5 µM)
CCCC/C=C/CCCCCCCCCCCCCC1=C(C(C)=O)C(=O)C(C)=C(OC(C)=O)C1=O | 27.5 µg/mL (≈ 56.5 µM) | 5 µg/mL (≈ 10.3 µM) | – | – | – | –
NNC(=O)c1ccncc1 [ISONIAZID] | 2.7 µg/mL (≈ 19.7 µM) | 0.8 µg/mL (≈ 5.83 µM) | – | – | – | 0.6 µg/mL (≈ 4.38 µM)
c1c2c(cc3c1C1CCN4CCC[C@@]56CCN3[C@@]1(CC5)C46)OCO2 (stereo partly drawn) | – | – | 36.2 µg/mL (≈ 112 µM) | 38.7 µg/mL (≈ 119 µM) | – | –

SMILES | MIC [1] | MIC [2] | MIC [3] | MIC [4] | MIC [5] | MIC [6]
CCC1=C(O)C(=O)C=C(O)C1=O | 120 µg/mL (≈ 714 µM) | 109 µg/mL (≈ 648 µM) | 70 µg/mL (≈ 416 µM) | 62.3 µg/mL (≈ 371 µM) | – | –
CC[C@@H](CO)NCCN[C@@H](CC)CO [ETHAMBUTOL] | 15 µg/mL (≈ 73.4 µM) | 2.5 µg/mL (≈ 12.2 µM) | – | – | – | 2.65 µg/mL (≈ 13 µM)
CCCC/C=C/CCCCCCCCCC1=C(O)C(=O)C=C(OC)C1=O | – | – | 40.7 µg/mL (≈ 112 µM) | 50 µg/mL (≈ 138 µM) | – | –
CCCC1=C(O)C(=O)C=C(O)C1=O | 115 µg/mL (≈ 631 µM) | 85 µg/mL (≈ 467 µM) | – | – | – | –
COc1cc(O)c2c(=O)c(O)c(-c3ccc(O)cc3)oc2c1 [RHAMNOCITRIN] | – | – | 37.7 µg/mL (≈ 126 µM) | 59.7 µg/mL (≈ 199 µM) | 15.3 µg/mL (≈ 51 µM) | –
O=C1CCc2nccc3c4ccccc4n1c23 | – | – | 42 µg/mL (≈ 189 µM) | 49.3 µg/mL (≈ 222 µM) | 30 µg/mL (≈ 135 µM) | –
CCCCCCCCCCCC1=C(OC)C(=O)C=C(OC)C1=O | 20 µg/mL (≈ 62 µM) | 10 µg/mL (≈ 31 µM) | – | – | – | –
COc1cc(O)c(C/C=C/c2ccccc2)c(O)c1OC | – | – | 41 µg/mL (≈ 143 µM) | 48.3 µg/mL (≈ 169 µM) | – | –
COc1ccc(-c2oc3cc(O)c(OC)c(O)c3c(=O)c2OC)cc1 [SANTIN] | – | – | 59 µg/mL (≈ 171 µM) | 51 µg/mL (≈ 148 µM) | – | –
CCC1=C(O)C(=O)C(CC)=C(O)C1=O | 55 µg/mL (≈ 280 µM) | 50 µg/mL (≈ 255 µM) | – | – | – | –
COc1ccc(-c2oc3cc(O)cc(O)c3c(=O)c2O)cc1 [KAEMPFERIDE] | – | – | 32.7 µg/mL (≈ 109 µM) | 26 µg/mL (≈ 86.6 µM) | – | –
COc1cc(O)cc(O)c1C/C=C/c1ccccc1 | – | – | 49.7 µg/mL (≈ 194 µM) | 53.7 µg/mL (≈ 210 µM) | – | –
O=C1C[C@@H](c2ccccc2)Oc2cc(O)cc(O)c21 [PINOCEMBRIN] | – | – | 73 µg/mL (≈ 285 µM) | 63.3 µg/mL (≈ 247 µM) | – | –
CCCC/C=C/CCCCCCCCCC1=C(O)C(=O)C(C)=C(O)C1=O | – | – | 41.3 µg/mL (≈ 114 µM) | 40.9 µg/mL (≈ 113 µM) | – | –
CCCCCC1=C(O)C(=O)C=C(O)C1=O | 110 µg/mL (≈ 523 µM) | 50 µg/mL (≈ 238 µM) | – | – | – | –
COc1cc(O)c(CCCc2ccccc2)c(O)c1OC | – | – | 34.3 µg/mL (≈ 119 µM) | 49.7 µg/mL (≈ 172 µM) | – | –
COc1ccc2c(c1OC)C=NC1C2CCC2CC3OCOC3CC21.Cl (stereo not drawn) | – | – | 31.3 µg/mL | 50.3 µg/mL | 16 µg/mL | –
CCCCCCCC1=C(O)C(=O)C=C(O)C1=O | 106 µg/mL (≈ 445 µM) | 45 µg/mL (≈ 189 µM) | – | – | – | –
CC(C)CCc1cc2c(cc1O)OCC1c3cc(O)cc(CCC(C)C)c3OC21 (stereo not drawn) | – | – | 74.3 µg/mL (≈ 187 µM) | 81.7 µg/mL (≈ 206 µM) | – | –
C=C1CC23CCC4[C@](O)(CO)C[C@@H](O)C[C@]4(C)C2CCC1C3 (stereo partly drawn) | – | – | 37.6 µg/mL (≈ 123 µM) | 66.8 µg/mL (≈ 218 µM) | 39.7 µg/mL (≈ 130 µM) | –
COc1cc2c(=O)c(-c3ccc4c(c3)OCO4)coc2c2c1OC(C)(C)CC2 | – | – | 74.7 µg/mL (≈ 196 µM) | 37.9 µg/mL (≈ 99.6 µM) | 40.3 µg/mL (≈ 106 µM) | –

Reference: ChEMBL document CHEMBL3044747, “The antimycobacterial MICs, SARs, and QSARs of some ethnobotanically selected phytocompounds” (2013)
